Assays:
[1] = test system: NCI-H226 cells; assay: Cell growth inhibition test (SRB); assay type: cell-based; conditions: Homo sapiens, 144 h; NCI-H226 mesothelioma cell line lacking the NF2 gene, cultured for 6 days, SRB test method
Procedure: Experimental Example 2: Cell Growth Inhibition Test
The synthetic compound was confirmed to inhibit cell growth in NCI-H226 cells. NCI-H226 is a mesothelioma cancer cell line lacking the NF2 gene, and was cultured in RPMI 1640 medium supplemented added with 10% FBS and 1% Penicillin/Streptomycin. Cultured cells were dispensed into 96-well plates at 0.7×10^3 cells/100 μl and cultured for 24 hours, then 100 μl of the test compound diluted to a 2× concentration were mixed into each well and cultured for 6 days. The SRB test method was used to measure cell growth inhibition, and the 50% inhibition value (GI50) for cell growth by the compound was calculated using GraphPad Prism 9.
If the GI50 value is less than 100 nM, it is indicated as A, and if it is 100 nM or more, it is indicated as B.

[2] = test system: TEAD transcriptional activity; assay: TEAD reporter activity inhibition test (luciferase reporter, MCF7 cell line); assay type: cell-based; conditions: Homo sapiens; TEAD (GTIIC) firefly luciferase reporter MCF7 cell line, 24 hours, ONE-Glo luminescence
Procedure: Experimental Example 1: TEAD Reporter Activity Inhibition Test
The ability of the synthetic compounds to inhibit TEAD target gene transcription was measured. This evaluation method measures the transcriptional activity of TEAD by measuring the luciferase luminescence expressed when TEAD binds to a target gene and activates transcription using the MCF7 cell line (BPS Bioscience, Inc., USA) in which a firefly luciferase reporter gene has been introduced into the specific binding structure of TEAD, GTIIC (5′-ACATTCCA-3′). Cell lines were cultured in MEM medium added with 10% FBS, 1% Penicillin/Streptomycin, 1% non-essential amino acids, 10 μg/ml insulin, and 400 μg/ml Geneticin, and Geneticin was excluded when testing for inhibition of TEAD reporter activity. […] cells/100 μl were dispensed into a white 96-well plate and cultured for 6 hours. 50 μl of the test compound diluted to 3× concentration was mixed into each well. After 24 hours of cell culture, the luciferase signal was measured by luminescence using the ONE-Glo luciferase assay system (Promega, E6120) following the manufacturer's protocol. The 50% inhibition value (IC50) for TEAD transcriptional activity was calculated using GraphPad Prism 9.
If the IC50 value is less than 100 nM, it is indicated as A, if it is at least 100 nM but less than 500 nM, it is indicated as B, and if it is 500 nM or more, it is indicated as C.

| GI50 [1] [nM] | IC50 [2] [nM] | SMILES |
| --- | --- | --- |
| < 100 | < 100 | CNS(=O)(=O)c1ccc2c(c1)c(-c1cn(CCOC)cn1)cn2-c1ccc(C(F)(F)F)cc1 [Example 38, 3-(1-(2-methoxyethyl)-1H-imidazol-4-yl)-N-methyl-1-(4-(trifluoromethyl)phenyl)-1H-indole-5-sulfonamide] |
| ≥ 100 | < 100 | CNS(=O)(=O)c1ccc2c(c1)c(-c1ccccc1F)cn2-c1ccc(C(F)(F)F)cc1 [Example 13, 3-(2-fluorophenyl)-N-methyl-1-(4-(trifluoromethyl)phenyl)-1H-indole-5-sulfonamide] |
| < 100 | < 100 | CCn1cnc(-c2cn(-c3ccc(C(F)(F)F)cc3)c3ccc(S(=O)(=O)NC)cc23)c1 [Example 11, 3-(1-ethyl-1H-imidazol-4-yl)-N-methyl-1-(4-(trifluoromethyl)phenyl)-1H-indole-5-sulfonamide] |
| < 100 | < 100 | CNS(=O)(=O)c1ccc2c(c1)c(-c1cn(C3CCC3)cn1)cn2-c1ccc(C(F)(F)F)cc1 [Example 16] |
| < 100 | < 100 | CNS(=O)(=O)c1ccc2c(c1)c(-c1cn(C3CC3)cn1)cn2-c1ccc(C(F)(F)F)cc1 [Example 28, 3-(1-cyclopropyl-1H-imidazol-4-yl)-N-methyl-1-(4-(trifluoromethyl)phenyl)-1H-indole-5-sulfonamide] |
| < 100 | < 100 | CNS(=O)(=O)c1ccc2c(c1)c(-c1ncccc1F)cn2-c1ccc(C(F)(F)F)cc1 [Example 20, 3-(3-fluoropyridin-2-yl)-N-methyl-1-(4-(trifluoromethyl)phenyl)-1H-indole-5-sulfonamide] |
| < 100 | < 100 | CNS(=O)(=O)c1ccc2c(c1)c(-c1ccc(C)o1)cn2-c1ccc(C(F)(F)F)cc1 [Example 10, N-methyl-3-(5-methylfuran-2-yl)-1-(4-(trifluoromethyl)phenyl)-1H-indole-5-sulfonamide] |
| < 100 | < 100 | CNS(=O)(=O)c1ccc2c(c1)c(-c1ccccn1)cn2-c1ccc(C(F)(F)F)cc1 [Example 8, N-methyl-3-(pyridin-2-yl)-1-(4-(trifluoromethyl)phenyl)-1H-indole-5-sulfonamide] |
| < 100 | < 100 | CNS(=O)(=O)c1ccc2c(c1)c(-c1cnc(C)o1)cn2-c1ccc(C(F)(F)F)cc1 [Example 32, N-methyl-3-(2-methyloxazol-5-yl)-1-(4-(trifluoromethyl)phenyl)-1H-indole-5-sulfonamide] |
| < 100 | < 100 | CNS(=O)(=O)c1ccc2c(c1)c(-c1ccoc1)cn2-c1ccc(C(F)(F)F)cc1 [Example 23, 3-(furan-3-yl)-N-methyl-1-(4-(trifluoromethyl)phenyl)-1H-indole-5-sulfonamide] |
| < 100 | < 100 | CNS(=O)(=O)c1ccc2c(c1)c(-c1cn(C)cn1)cn2-c1ccc(C(F)(F)F)cc1 [Example 2, N-methyl-3-(1-methyl-1H-imidazol-4-yl)-1-(4-(trifluoromethyl)phenyl)-1H-indole-5-sulfonamide] |
| – | 100 to 500 | CNS(=O)(=O)c1ccc2c(c1)c(-c1ccc(C)o1)cn2-c1ccccc1 [Example 24, N-methyl-3-(5-methylfuran-2-yl)-1-phenyl-1H-indole-5-sulfonamide] |
| – | ≥ 500 | CNS(=O)(=O)c1ccc2c(c1)c(-c1cn(C(C)C)cn1)cn2-c1ccc(C(F)(F)F)cc1 [Example 6, 3-(1-isopropyl-1H-imidazol-4-yl)-N-methyl-1-(4-(trifluoromethyl)phenyl)-1H-indole-5-sulfonamide] |
| – | 100 to 500 | CNS(=O)(=O)c1ccc2c(c1)c(-c1ccncc1)cn2-c1ccc(C(F)(F)F)cc1 [Example 15, N-methyl-3-(pyridin-4-yl)-1-(4-(trifluoromethyl)phenyl)-1H-indole-5-sulfonamide] |
| < 100 | < 100 | CNS(=O)(=O)c1ccc2c(c1)c(-c1cn(C3CC3)cn1)cn2-c1ccc(C(F)(F)F)cc1F [Example 42, 3-(1-cyclopropyl-1H-imidazol-4-yl)-1-(2-fluoro-4-(trifluoromethyl)phenyl)-N-methyl-1H-indole-5-sulfonamide] |
| – | 100 to 500 | CNS(=O)(=O)c1ccc2c(c1)c(-c1cnco1)cn2-c1ccc(C(F)(F)F)cc1 [Example 41, N-methyl-3-(oxazol-5-yl)-1-(4-(trifluoromethyl)phenyl)-1H-indole-5-sulfonamide] |
| < 100 | < 100 | CNS(=O)(=O)c1ccc2c(c1)c(-c1cn(C3CC3)cn1)nn2-c1ccc(C(F)(F)F)cc1 [Example 44, 3-(1-cyclopropyl-1H-imidazol-4-yl)-N-methyl-1-(4-(trifluoromethyl)phenyl)-1H-indazol-5-sulfonamide] |
| < 100 | < 100 | CNS(=O)(=O)c1cnc2c(c1)c(-c1cn(C3CC3)cn1)cn2-c1ccc(C(F)(F)F)cc1 [Example 43, 3-(1-cyclopropyl-1H-imidazol-4-yl)-N-methyl-1-(4-(trifluoromethyl)phenyl)-1H-pyrrolo[2,3-b]pyridine-5-sulfonamide] |
| – | 100 to 500 | CNS(=O)(=O)c1ccc2c(c1)c(-c1cnn(C)c1)cn2-c1ccc(C(F)(F)F)cc1 [Example 4, N-methyl-3-(1-methyl-1H-pyrazol-4-yl)-1-(4-(trifluoromethyl)phenyl)-1H-indole-5-sulfonamide] |
| – | < 100 | CNS(=O)(=O)c1ccc2c(c1)c(-c1cn(C)cn1)cn2-c1ccc(C(F)(F)F)c(Cl)c1 [Example 27, 1-(3-chloro-4-(trifluoromethyl)phenyl)-N-methyl-3-(1-methyl-1H-imidazol-4-yl)-1H-indole-5-sulfonamide] |
| < 100 | < 100 | CNS(=O)(=O)c1ccc2c(c1)c(-c1ccco1)cn2-c1ccc(C(F)(F)F)cc1 [Example 31, 3-(furan-2-yl)-N-methyl-1-(4-(trifluoromethyl)phenyl)-1H-indole-5-sulfonamide] |

— patent US20260124197A1, “NOVEL HETEROBICYCLIC COMPOUND FOR INHIBITING YAP-TEAD INTERACTION AND PHARMACEUTICAL COMPOSITION COMPRISING SAME” (priority 2022, published 2026)
